Test systems include CAKI-1; CCRF-CEM; M14; IGROV-1; UO-31; SK-MEL-2; SF-268; OVCAR-4; RPMI-8226; SF-295; SK-MEL-5; KM12; K562; 786-0; DLD-1; SR; OVCAR-3; T47D; PC-3; MDA-N.
Assay in all cases: growth of human tumour cells (NCI), 48 h

Structures are written as SMILES.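 Test compounds were applied to cells in 96-well plates for 48 hours at 5 doses. GI50: concentration for 50% inhibition of growth.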 Active and inactive are the calls of the source. Cut-off read from the data, not from the text of the source: active = GI50 up to about 1.1 µM and inactive = higher.

For the compound `CN(C)c1ccc(Cc2cc(C(C)(C)C)cc(C(C)(C)C)c2O)cc1`, the GI50 with CAKI-1 was 19.1 µM (inactive); in the assay on CCRF-CEM it was 60.1 µM (inactive); in the assay on M14, 18.1 µM (inactive); in the assay on IGROV-1, 18 µM (inactive); with UO-31 it was 17.2 µM (inactive); with SK-MEL-2, 6.87 µM (inactive). The GI50 is 17.3 µM (inactive) in the assay on SF-268; 21.3 µM (inactive) with OVCAR-4; 11.5 µM (inactive) with RPMI-8226; 18.9 µM (inactive) in the assay with SF-295; 15.6 µM (inactive) in the assay with SK-MEL-5; 12.2 µM (inactive) in the assay with KM12. Moreover, the GI50 in the assay with K562 is 11.7 µM (inactive); in the assay with 786-0, 18.5 µM (inactive); in the assay on DLD-1, 21.8 µM (inactive); in the assay with SR, 14.6 µM (inactive).

In the case of `Cc1ccc(NC(=O)C2C3C=CC(O3)C2C(=O)O)cc1` (stereo not given), the GI50 in the assay on CCRF-CEM was 83.9 µM (inactive); in the assay with M14 it was > 100 µM (inactive); in the assay on IGROV-1, > 100 µM (inactive); with UO-31, > 100 µM (inactive); with OVCAR-3, > 100 µM (inactive); with SK-MEL-2, > 100 µM (inactive). The GI50 with SF-268 is > 100 µM (inactive); with OVCAR-4 it was > 100 µM (inactive); in the assay on RPMI-8226, 24.3 µM (inactive); in the assay on SF-295 it was > 100 µM (inactive); in the assay with SK-MEL-5, > 100 µM (inactive); in the assay on K562, > 100 µM (inactive). Further, the GI50 with 786-0 is 53.3 µM (inactive); in the assay with DLD-1, > 100 µM (inactive); in the assay on SR it was > 100 µM (inactive).

As for `CC(C)C(=O)Nc1nc2[nH]cnc2c(=O)[nH]1`, the GI50 in the assay with CAKI-1, in the assay on CCRF-CEM, in the assay with M14, in the assay on IGROV-1, with UO-31 and with OVCAR-3 was > 100 µM (inactive) each time. For the same compound, the GI50 in the assay with SK-MEL-2, with SF-268, in the assay with OVCAR-4, in the assay on RPMI-8226, in the assay on SF-295 and in the assay with SK-MEL-5 was > 100 µM (inactive) throughout. Besides, the GI50 with KM12, in the assay with K562, in the assay with 786-0, in the assay with DLD-1 and with SR was > 100 µM (inactive) each time.

`C=CCOCCCCC(C(C)=O)C(=O)OC` (stereo not given): the GI50 with CAKI-1, in the assay with CCRF-CEM, with M14, in the assay with IGROV-1, in the assay with UO-31 and in the assay on OVCAR-3 was > 100 µM (inactive) throughout. The GI50 in the assay with SK-MEL-2, with SF-268, in the assay on OVCAR-4, with RPMI-8226, in the assay on SF-295 and in the assay on SK-MEL-5 was > 100 µM (inactive) in each case. In addition, the GI50 in the assay on KM12, in the assay with K562, in the assay with 786-0, in the assay with DLD-1 and in the assay with SR was > 100 µM (inactive) throughout.

Regarding `O=C1c2ccccc2C(=O)c2sc(Nc3ccc(Cl)c(Cl)c3)nc21`, the GI50 in the assay with CAKI-1 is 3.07 µM (inactive); with CCRF-CEM, 1.85 µM (inactive); with M14 it was 3.22 µM (inactive); in the assay with T47D, 4.03 µM (inactive); in the assay on IGROV-1, 3.82 µM (inactive); in the assay on UO-31, 2.12 µM (inactive). The GI50 is 2.49 µM (inactive) in the assay on OVCAR-3; 8.26 µM (inactive) in the assay on SK-MEL-2; 4.97 µM (inactive) in the assay with SF-268; 2.21 µM (inactive) with OVCAR-4; 2.02 µM (inactive) in the assay on RPMI-8226; 15.2 µM (inactive) with SF-295. The GI50 in the assay with SK-MEL-5 was 2.32 µM (inactive); with KM12 it was 7.83 µM (inactive); in the assay on K562 it was 3.21 µM (inactive); in the assay on 786-0 it was 1.82 µM (inactive); in the assay with DLD-1, 2.15 µM (inactive); in the assay with SR, 2.52 µM (inactive).

Turning to `O=[N+]([O-])c1ccccc1[S+]([O-])c1ccccc1` (stereo not given), the GI50 with CAKI-1 was 60.4 µM (inactive); in the assay on CCRF-CEM, 47.8 µM (inactive); with M14, > 100 µM (inactive); in the assay with IGROV-1, 68.2 µM (inactive); in the assay with UO-31, 63.5 µM (inactive); in the assay on OVCAR-3, 73.8 µM (inactive). Also, the GI50 is > 100 µM (inactive) in the assay with SK-MEL-2; 77.6 µM (inactive) in the assay with SF-268; 49.2 µM (inactive) with OVCAR-4; 52.5 µM (inactive) with RPMI-8226; 90.8 µM (inactive) with SF-295; 36.8 µM (inactive) with SK-MEL-5. Besides, the GI50 in the assay on KM12 was 87.9 µM (inactive); in the assay with K562, 35.1 µM (inactive); in the assay on 786-0, > 100 µM (inactive); in the assay on DLD-1 it was 71 µM (inactive); with SR it was 71.8 µM (inactive).

`COc1cc(C2c3cc4c(cc3[C@@H](Nc3ccc(N)cc3)C3COC(=O)[C@H]23)OCO4)cc(OC)c1O` (stereo not given in full): the GI50 in the assay with CAKI-1 was 0.446 µM (active); in the assay with CCRF-CEM, 0.222 µM (active); with M14, 1.31 µM (inactive); with IGROV-1, 3.35 µM (inactive); in the assay with UO-31 it was 1.34 µM (inactive); with OVCAR-3 it was 6.1 µM (inactive). The GI50 in the assay with PC-3 was 0.446 µM (active); in the assay with SK-MEL-2 it was 5.73 µM (inactive); with SF-268, 1.63 µM (inactive); with OVCAR-4, 24.5 µM (inactive); in the assay with RPMI-8226 it was 0.425 µM (active); in the assay on SF-295, 0.403 µM (active). The GI50 in the assay with SK-MEL-5 was 0.918 µM (active); in the assay on MDA-N, 3.93 µM (inactive); in the assay on KM12, 3.43 µM (inactive); with K562 it was 3.13 µM (inactive); in the assay with 786-0 it was 0.908 µM (active); with DLD-1 it was 4.57 µM (inactive). In the assay with SR, the GI50 is 0.205 µM (active).

With `Cc1cnoc1/N=C1\C=C(Nc2oncc2C)C(=O)c2ccccc21`, the GI50 in the assay on CAKI-1 is > 100 µM (inactive); in the assay on CCRF-CEM, > 100 µM (inactive); in the assay with M14, > 100 µM (inactive); in the assay with IGROV-1, > 100 µM (inactive); with UO-31, 62.1 µM (inactive); with OVCAR-3, 9.86 µM (inactive). For the same compound, the GI50 with SK-MEL-2 is > 100 µM (inactive); in the assay on SF-268, > 100 µM (inactive); with OVCAR-4, > 100 µM (inactive); with RPMI-8226, > 100 µM (inactive); with SF-295, > 100 µM (inactive); with SK-MEL-5 it was 33.3 µM (inactive). Besides, the GI50 was > 100 µM (inactive) in the assay with KM12; 25.5 µM (inactive) in the assay with K562; > 100 µM (inactive) in the assay with 786-0; > 100 µM (inactive) with DLD-1; > 100 µM (inactive) in the assay on SR.

Consider `O=C1c2cccc3cc([N+](=O)[O-])cc(c23)C(=O)N1NC1=NCCN1`, for which the GI50 with CAKI-1, in the assay on CCRF-CEM, in the assay on M14, with IGROV-1, in the assay on UO-31 and with OVCAR-3 was > 100 µM (inactive) in each case. Besides, the GI50 in the assay with SK-MEL-2, with SF-268, in the assay on OVCAR-4, in the assay on RPMI-8226, in the assay with SF-295 and in the assay on SK-MEL-5 was > 100 µM (inactive) throughout. Further, the GI50 in the assay on KM12, with K562, in the assay with 786-0, in the assay with DLD-1 and with SR was > 100 µM (inactive) in each case.

`CC(C)(C)c1cc(-c2c3nc(c(-c4cc(C(C)(C)C)cc(C(C)(C)C)c4)c4ccc([nH]4)c(-c4cc(C(C)(C)C)cc(C(C)(C)C)c4)c4nc(c(-c5cc(C(C)(C)C)cc(C(C)(C)C)c5)c5ccc2[nH]5)C=C4)C=C3)cc(C(C)(C)C)c1`: the GI50 in the assay on CAKI-1, in the assay on CCRF-CEM, in the assay with M14, in the assay with IGROV-1, in the assay on UO-31 and with OVCAR-3 was > 100 µM (inactive) in each case. For the same compound, the GI50 with SK-MEL-2, in the assay on SF-268, with OVCAR-4, in the assay with RPMI-8226, with SF-295 and in the assay with SK-MEL-5 was > 100 µM (inactive) throughout. Further, the GI50 with KM12, in the assay with K562, in the assay on 786-0, in the assay with DLD-1 and in the assay with SR was > 100 µM (inactive) throughout.

`N=C(NC(=S)N1CCCCC1)N1CCCCC1`: the GI50 in the assay on CAKI-1, in the assay with CCRF-CEM, in the assay with M14, in the assay on IGROV-1, in the assay on UO-31 and in the assay with SK-MEL-2 was > 100 µM (inactive) throughout. The GI50 in the assay on SF-268, in the assay on OVCAR-4, in the assay with RPMI-8226, in the assay on SF-295, with SK-MEL-5 and with KM12 was > 100 µM (inactive) throughout. Also, the GI50 in the assay on K562, in the assay on 786-0, in the assay with DLD-1 and in the assay with SR was > 100 µM (inactive) each time.

With `Cc1ccc(C2=C(c3ccccc3)C(O)(c3ccccc3)C(c3ccccc3)=C2c2ccc(C)cc2)cc1`, the GI50 with CCRF-CEM was > 10 µM (inactive); in the assay with M14 it was 83.8 µM (inactive); in the assay on IGROV-1 it was > 100 µM (inactive); in the assay with UO-31 it was 78.7 µM (inactive); in the assay on SK-MEL-2 it was 6.17 µM (inactive); in the assay with SF-268 it was > 100 µM (inactive). Also, the GI50 is 35.7 µM (inactive) with RPMI-8226; 35.6 µM (inactive) in the assay on SF-295; > 100 µM (inactive) in the assay with SK-MEL-5; > 100 µM (inactive) with KM12; > 100 µM (inactive) with K562; > 100 µM (inactive) in the assay with 786-0. In addition, the GI50 in the assay with DLD-1 and with SR was > 100 µM (inactive) throughout.
